According to patent US20240180158A1, “COMPOUNDS HAVING SELECTIVE INACTIVATION ACTIVITY” (University of North Carolina at Wilmington, priority 2021, published 2024):
Where a name gives a salt, the structure may show the parent alone. Read-outs that look alike come from different tables or passages of the source.

Tests used:
S. aureus = assay: Disk diffusion assay, S. aureus; assay type: cell-based
Description: (§1) The following disk diffusion assays were performed with example compounds described above to assess the ability of compounds to inhibit growth of microorganism. A compound that inhibits its target enzyme may perform poorly for a number of reasons, including low solubility in water or slow rate of transport across a microbial membrane.

K pneumoniae = assay: Disk diffusion assay, K pneumoniae; assay type: cell-based
Description: as §1

CalASADH = target: T1, CalASADH (Candida albicans, UniProt Q5ALM0); assay: Reversibility of CalASADH inactivation by exogenous thiols; assay type: biochemical; details: incubated 10 min, read-out: residual activity of CalASADH
T1 construct: His tag; made in house
T1 sequence (Q5ALM0 1-365): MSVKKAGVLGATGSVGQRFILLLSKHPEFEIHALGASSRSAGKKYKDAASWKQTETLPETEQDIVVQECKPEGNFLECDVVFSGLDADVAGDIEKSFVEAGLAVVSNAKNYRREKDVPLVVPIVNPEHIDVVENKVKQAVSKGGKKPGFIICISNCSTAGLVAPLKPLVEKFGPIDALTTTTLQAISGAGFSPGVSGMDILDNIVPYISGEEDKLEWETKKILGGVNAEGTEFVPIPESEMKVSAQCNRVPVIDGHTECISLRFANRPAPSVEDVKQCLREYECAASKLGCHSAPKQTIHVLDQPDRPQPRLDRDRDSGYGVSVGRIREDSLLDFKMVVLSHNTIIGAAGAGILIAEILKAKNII
Description: This loss of activity supports the hypothesis that these vinyl sulfones are covalently modifying this enzyme. To determine whether this inactivation can be reversed by the introduction of an exogenous nucleophile a large excess of either cysteine (5 mM) or glutathione (10 mM) was added to the reaction mixture after incubation, and the activity of this inactivated enzyme was then monitored. Samples of CalASADH that had been incubated either with 3 μM 4-(methylvinylsulfonyl)nitrobenzene or with 100 μM 3-(phenylsulfonyl)acrylic acid for 10 min were measured to have from 5 to 10% residual activity. At this point, after either cysteine or glutathione was added to each reaction mixture, the residual enzyme activity was monitored as described above.

[1] = target: T2, Candida albicans ASADH (CalASADH), aspartate semialdehyde dehydrogenase, his-tagged (Candida albicans, UniProt Q5ALM0); assay: Inhibition/time-dependent inactivation of Candida albicans ASADH by vinyl sulfones (purified his-tagged enzyme; NADPH production at 340 nm); assay type: biochemical; details: FIG. 5; pH 8.6, 25° C., 0.3 mM ASA, 1.5 mM NADP, 20 mM phosphate; irreversible covalent inactivators
T2 construct: His tag; made in house
T2 sequence (Q5ALM0 1-365): T1 sequence (Q5ALM0 1-365)
Description: FIG. 5 is a table showing the affinities and the rates of inactivation of example vinyl sulfones as inactivators of a fungal ASADH, in accordance with some embodiments of the present technology;
Their initial inhibition potencies (Ki values) were determined by varying the concentration of each vinyl sulfone in the presence of fixed, non-saturating substrate levels.
Aryl vinyl sulfones can be reasonably potent inhibitors of CalASADH, each inhibitor was then tested to determine if it would function as an enzyme inactivator. […] In most cases the residual enzyme activity, measured following a subsequent 20-fold dilution into an assay mixture, decreased to less than 5% of the control rate after incubation with low micromolar levels of these inactivators for 10 min or less. To determine the rate of inactivation the concentration of each vinyl sulfone in this pre-incubation mixture was then varied, centered around their initial measured Ki values. The rate of activity loss observed in each incubation reaction (kobs) was plotted against the inhibitor concentration to determine the inactivation rate (kinact) for that compound and the concentration that produces half-maximal inactivation (Ki). […] The proposed product of the reaction of the active site nucleophile (Cys-156) with this inactivator predicts key interactions of the p-nitro group with Arg-18 and Ser-187, and the protonation of the covalent intermediate by His-256. […] Reaction of this inactivator with the active site nucleophile (Cys-156) predicts keys interactions between its carboxyl group and several backbone amide nitrogens that would shift this adduct further from the active site base (His-256). FIG. 3 illustrates inactivation of Candida albicans ASADH by 4-(methylvinylsulfonyl)nitrobenzene. Plot of the natural log of the ratio of enzyme activity at each time point over the initial enzyme activity, showing the loss of activity as a functional of incubation time for different concentrations of inactivator: 0 μM, 0.75 μM, 1.5 μM, 3 μM, 6 μM. The resulting observed rates at each concentration (kobs) were plotted against the inactivator concentration and a non-linear fit to these replotted data yielded the rate of inactivation (kinact) and the inhibition constant (Ki).
The ASADH from Candida albicans (CalASADH) was purified using an ÄKTA chromatography system as previously described (Arachea et al., 2010), with only minor modifications. A nickel-immobilized metal affinity (IMAC) column was used for the purification of the his-tagged enzyme, with an initial buffer wash containing 20 mM imidazole to remove loosely bound proteins before elution with a 20 to 400 mM imidazole gradient. The enzyme activity was assayed at 25° C. by following the production of NADPH at 340 nm in a SpectraMax 190 plate reader (Molecular Devices). Enzyme inhibitors were evaluated by the same assay in the presence of 120 mM CHES buffer, pH 8.6, with 120 mM KCl, 0.3 mM ASA, 1.5 mM NADP, 20 mM phosphate and varying concentrations of each potential inhibitory compound to be tested. The data were fitted to a competitive inhibitor model which corrects for the levels of substrates present relative to their individual Km values.
To examine the possibility of enzyme inactivation each vinyl sulfone compound was incubated in a defined concentration range with 30 μg/ml of CalASADH, with the inhibitor concentrations grouped around their determined Ki values. Aliquots (10 μl) were removed from the enzyme-inhibitor reaction mixture at various times ranging from 30 secs to 60 min, with most compounds examined from 1 to 10 min at 2 min intervals. Each aliquot was then added to a 190 μl of the same assay mixture as described above for the inhibition studies to measure the residual enzyme activity. […]

[2] = target: Vibrio cholera ASADH (V. cholera ASADH), aspartate semialdehyde dehydrogenase; assay: Inactivation of the bacterial ASADH ortholog from Vibrio cholera by vinyl sulfones (comparison with the fungal enzyme); assay type: biochemical; details: FIG. 6, irreversible covalent inactivators
Excerpt: FIG. 6 is a table showing a comparison of the differences in affinities and rates of inactivation of example vinyl sulfones as inactivators of either a bacterial or a fungal ASADH, in accordance with some embodiments of the present technology; and
Enhanced reactivity upon binding to an enzyme target is a desirable property if these vinyl sulfones are to serve as effective antifungal agents. However, increased selectivity in target binding is equally important. […] The ASADH from the […] bacterium Vibrio cholera has >90% overall sequence homology to the C. albicans enzyme, with the exception of a helical domain insert (Arachea et al., 2010), and all of the essential active site functional amino acids are fully conserved between these enzyme forms. Five different vinyl sulfones that span the fungal ASADH potency spectrum were selected and examined as potential inactivators of the bacterial ASADH. […] However, importantly, several of these compounds already show some level of discrimination between the fungal and bacterial ASADHs (Table 3).
Ideally, any antifungal agent should have high specificity, interacting only with its intended target. […] Each of the vinyl sulfones that were examined as inactivators of a fungal ASADH were also found to inactivate the bacterial ASADH ortholog, but several of them do so with lower efficiencies. In particular, the best fungal ASADH inactivators with a polar functional group at the 4-position of the benzyl ring are from 7 to 9-fold less efficient when examined as bacterial ASADH inactivators (See e.g. Table 3). By contrast, the inactivators with this polar group in the 2- or 3-position show no significant differences in reactivity between the fungal and bacterial forms of ASADH. The respective active sites of these two ASADH orthologs are virtually identical. However, a conserved arginine (Arg-18) found in fungal ASADH that is proposed to interact with the 4-nitro or the 4-carboxy groups in these inactivators (FIG. 1) is replaced with either a valine or a threonine in the bacterial ASADH family.
The ASADH from Candida albicans (CalASADH) was purified using an ÄKTA chromatography system as previously described (Arachea et al., 2010), with only minor modifications. […] The enzyme activity was assayed at 25° C. by following the production of NADPH at 340 nm in a SpectraMax 190 plate reader (Molecular Devices). Enzyme inhibitors were evaluated by the same assay in the presence of 120 mM CHES buffer, pH 8.6, with 120 mM KCl, 0.3 mM ASA, 1.5 mM NADP, 20 mM phosphate and varying concentrations of each potential inhibitory compound to be tested. […]

C. auris ASADH = C. auris ASADH (Candidozyma auris, UniProt A0A2H0ZN20); assay: C. auris ASADH irreversible inhibition; assay type: biochemical
Sequence of C. auris ASADH (A0A2H0ZN20 entry or part of it): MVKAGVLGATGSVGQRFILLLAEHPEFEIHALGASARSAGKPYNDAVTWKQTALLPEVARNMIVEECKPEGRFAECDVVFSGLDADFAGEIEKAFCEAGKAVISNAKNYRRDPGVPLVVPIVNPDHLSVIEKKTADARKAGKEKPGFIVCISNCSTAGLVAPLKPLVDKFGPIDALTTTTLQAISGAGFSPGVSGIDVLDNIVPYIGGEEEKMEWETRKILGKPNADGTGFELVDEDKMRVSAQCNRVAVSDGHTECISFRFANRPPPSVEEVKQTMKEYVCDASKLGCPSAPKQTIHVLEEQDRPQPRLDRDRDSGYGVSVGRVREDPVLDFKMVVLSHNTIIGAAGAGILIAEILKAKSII
Description: These amino acid analogs may be synthesized in accordance with various techniques and schemes provided herein. Two are vinyl sulfones and one is an acrylamide. Accordingly, the core functional group of compounds described herein can be at least one of a vinyl sulfone and/or an acrylamide. The vinyl sulfones were tested against C. auris ASADH as irreversible inhibitors.

Structure (SMILES) | Ki [1] | also measured
CS(=O)(=O)/C=C/c1cc(O)ccc1O [2-MSV-dihydroxbenzene, 2-(S-methylsulfonylvinyl)1,4-dihydroxybenzene] | – | disk diffusion, S. aureus (S. aureus; aromatic compounds): medium; disk diffusion, K pneumoniae (K pneumoniae; aromatic compounds): weak
O=C(O)/C=C/S(=O)(=O)c1ccccc1 [3-(phenylsulfonyl)acrylic acid] | – | remaining activity at 100 µM (CalASADH; 100 μM): 5 to 10%
CS(=O)(=O)/C=C/c1ccc([N+](=O)[O-])cc1 [4-(methylvinylsulfonyl)nitrobenzene, 4-(methylsulfonylvinyl)nitrobenzene] | – | remaining activity at 3 µM (CalASADH; 3 μM): 5 to 10%
CS(=O)(=O)/C=C/c1ccc(C(=O)O)cc1 [Compound 1, 4-(methylsulfonylvinyl)benzoic acid] | 0.78 ± 0.1 µM | Ki [2]: 4.45 ± 0.25 µM
CS(=O)(=O)/C=C/c1ccc([N+](=O)[O-])cc1 [Compound 2, 4-(methylsulfonylvinyl)nitrobenzene] | 1.02 ± 0.28 µM | Ki [2]: 6.29 ± 0.59 µM
CS(=O)(=O)/C=C/c1cccc([N+](=O)[O-])c1 [Compound 12, 3-(methylsulfonylvinyl)nitrobenzene] | 19.6 ± 1.4 µM | Ki [2]: 10.3 ± 2.3 µM
CS(=O)(=O)/C=C/c1ccccc1[N+](=O)[O-] [Compound 14, 2-(methylsulfonylvinyl)nitrobenzene] | 56.7 ± 2.7 µM | Ki [2]: 2.57 ± 0.23 µM
CS(=O)(=O)/C=C/C(N)=O [MeSAm, 3-S-Methylsulfonylacrylamide] | – | disk diffusion, S. aureus (S. aureus; vinyl sulfone carboxamides): strong; disk diffusion, K pneumoniae (K pneumoniae; vinyl sulfone carboxamides): strong
NC(=O)/C=C/S(=O)(=O)c1ccccc1 [PhSAm, 3-S-Phenylsulfonylacrylamide] | – | disk diffusion, S. aureus (S. aureus; vinyl sulfone carboxamides): strong; disk diffusion, K pneumoniae (K pneumoniae; vinyl sulfone carboxamides): strong
NC(C/C=C/S(=O)(=O)Cc1ccccc1)C(=O)O (centres unmarked) [S-benzylsulfonylvinylalanine, 3-(benzylsulfonylvinyl)-alanine hydrochloride] | – | Ki (C. auris ASADH): 0.3 µM
CS(=O)(=O)C=CC[C@H](N)C(=O)O [S-methylsulfonylvinylacrylamide, 3-(S-methylsulfonylvinyl)-alanine hydrochloride] | – | Ki (C. auris ASADH; irreversible inhibitors, read-out: inhibitory constant): 0.1 µM

Now from value to compound, other results behind:

Ki [1] | Structure (SMILES) | also measured
2.64 ± 0.22 µM | CS(=O)(=O)/C=C/c1ccccn1 [Compound 3, 2-(methylsulfonylvinyl)pyridine] | –
3.52 ± 0.42 µM | CS(=O)(=O)/C=C/c1ccc(O)c(O)c1 [Compound 4, 4-(methylsulfonylvinyl)-1,2-benzenediol] | –
2.16 ± 0.24 µM | O=S(=O)(/C=C/c1ccncc1)c1ccccc1 [Compound 5, 4-(phenylsulfonylvinyl)pyridine] | –
4.26 ± 0.83 µM | CS(=O)(=O)/C=C/c1ccccc1 [Compound 6, Methylsulfonylvinylbenzene] | –
21.7 ± 8 µM | O=S(=O)(/C=C/c1ccccc1)C(F)(F)F [Compound 7, Trifluoromethylsulfonylvinylbenzene] | –
8.49 ± 0.94 µM | O=S(=O)(/C=C/c1ccccn1)c1ccccc1 [Compound 8, 2-(Phenylsulfonylvinyl)pyridine] | –
5.69 ± 0.78 µM | CS(=O)(=O)/C=C/c1ccncc1 [Compound 9, 4-(methylsulfonylvinyl)pyridine] | –
25.1 ± 6.8 µM | CS(=O)(=O)/C=C/c1cccnc1 [Compound 10, 3-(methylsulfonylvinyl)pyridine] | –
42.2 ± 3 µM | O=S(=O)(/C=C/c1cccnc1)c1ccccc1 [Compound 11, 3-(Phenylsulfonylvinyl)pyridine] | –
36.9 ± 6.2 µM | CS(=O)(=O)/C=C/c1cccc(C(=O)O)c1 [Compound 13, 3-(methylsulfonylvinyl)benzoic acid] | –
67.1 ± 15.8 µM | O=C(O)/C=C/S(=O)(=O)c1ccccc1 [Compound 15, 3-(phenylsulfonyl)acrylic acid] | –
